Read-outs that look alike come from different tables or passages of the source. Non-standard residues stand in square brackets, D forms with d. Residues, ends and D or L forms follow the SMILES beside them. *: point of attachment. 2Nal = N[C@@H](Cc1ccc2ccccc2c1)C(=O)O; Tle = CC(C)(C)[C@H](N)C(=O)O; tBu = CC(C)(C)*
Experiments:
Format in all cases: biochemical
[1] = test system: peptide-producing enzyme (Mono S fraction) from Empedobacter brevis strain FERM BP-8113; experiment: Enzyme substrate specificity (1)-(10), (13), (14); set-up: key: +: those peptides for which production was confirmed but which were unable to be quantified due to the absence of a standard; a trace amount
Text: (§1) Ester specificity was examined in the case of using L-amino acid ester for the carboxy component. […] The amounts of L-Ala-L-Gln produced in this reaction are shown in Table 4 (HCl represents hydrochloride in Table 4). Peptide production was examined in the case of using L-alanine methyl ester for the carboxy component and using various L-amino acids for the amine component. […] (The “+” mark indicates those peptides for which production was confirmed but which were unable to be quantified due to the absence of a standard, while “tr” indicates a trace amount.) Peptide production was examined in the case of using various types of L-amino acid methyl esters for the carboxy component and using L-glutamine for the amine component. […] Peptide production was examined in the case of using various L-amino acid methyl esters for the carboxy component and various L-amino acids for the amine component. […] (The “tr” indicates a trace amount.) Furthermore, Tween-80 was added to the reaction system to a final concentration of 0.1% in the case of using L-Trp-OMe. (The “+” mark indicates those peptides for which production was confirmed but which were unable to be quantified due to the absence of a standard.) […] (The “tr” indicates a trace amount.) Peptide production was examined using various L-amino acid amides for the carboxy component, and various L-amino acids for the amine component. […] Peptide production was examined in the case of using various L-alanine methyl esters for the carboxy component and C-protected L-amino acids for the amine component. […] Peptide production was examined in the case of using various amino acid methyl esters for the carboxy component and methylamine for the amine component. […] Peptide production was examined in the case of using β-amino acid ester for the carboxy component or β-amino acid for the amine component. […] (The “tr” indicates a trace amount.) Oligopeptide production was examined in the case of using L-amino acid ester for the carboxy component and peptide for the amine component. […] Substrate specificity was additionally assessed using the same enzyme fraction as that used in Example 5. […] (A “+” mark indicates those for which production was confirmed but which were unable to be quantified due to the absence of a standard, while “tr” indicates a trace amount). Substrate specificity with respect to oligopeptide production was assessed using the same enzyme fraction as Example 26. […] (A “+” mark indicates those for which production was confirmed but which were unable to be quantified due to the absence of a standard, while “tr” indicates a trace amount). It should be noted that hydrochlorides were used for all of the carboxy components.

[2] = test system: enzyme (SP-Sepharose HP fraction) derived from Sphingobacterium sp. strain FERM BP-8124; set-up: key to Produced peptide (mM): +: those peptides for which production was confirmed but which were unable to be quantified due to the absence of a standard; a trace amount; settings: 0.33 units enzyme, pH 9.0, 25° C., 1.5 hours
Protocol: Substrate specificity was examined for enzyme derived from Sphingobacterium sp. strain FERM BP-8124 (Depositary institution: National Institute for Advanced Industrial Science and Technology, International Patent Organism Depositary, Address of depositary institution: Central. 6, 1-1-1 Higashi, Tsukuba City, Ibaraki Prefecture, Japan, International deposit date: Jul. 22, 2002). 100 μl of 100 mM borate buffer (pH 9.0) containing the various carboxy components at a final concentration of 100 mM and the various amine components at a final concentration of 150 mM shown in Tables 15-1 to 15-4, the SP-Sepharose HP fraction enzyme purified in Example 22 (addition of 0.33 units in the reaction liquid) and 10 mM EDTA were allowed to react at 25° C. for 1.5 hours. […] In addition, hydrochlorides were used for all carboxy components.
Substrate specificity with respect to oligopeptide production was examined for enzyme derived from Sphingobacterium sp. strain FERM BP-8124 (Depositary institution: National Institute for Advanced Industrial Science and Technology,.International Patent Organism Depositary, Address of depositary institution: Chuo Dai-6, 1-1 Higashi 1-Chome, Tsukuba-shi, Ibaraki-ken, Japan, International deposit date: Jul. 22, 2002). A 100 μl aliquot of 100 mM borate buffer (pH 9.0) containing the various carboxy components at a final concentration of 100 mM and the various amine components at a final concentration of 150 mM shown in Table 16, the SP-Sepharose HP fraction enzyme purified in Example 22 (addition of 0.33 units in the reaction liquid) and 10 mM EDTA were allowed to react for 1.5 hours at 25° C. Furthermore, hydrochloride salts were used for all carboxy components.

[3] = test system: peptide-producing enzyme (Mono S fraction) from Empedobacter brevis strain FERM BP-8113; experiment: Enzyme substrate specificity (1)-(10), (13), (14); settings: pH 9.0, 25° C., 3 hours
Text: as §1

[4] = carboxy component 100 mM, amine component 150 mM, 0.1 unit enzyme, 25° C., reaction time 3 hr
[5] = L-amino acid methyl ester hydrochloride 100 mM, 150 mM L-glutamine, pH 9.0, 25° C., 3 hours
[6] = L-amino acid methyl ester hydrochloride 100 mM, 150 mM L-glutamine
[7] = Table 15-2, carboxy component 100 mM, L-Gln 150 mM
[8] = L-amino acid methyl ester hydrochloride 100 mM, L-amino acid 150 mM
[9] = Table 15-3, carboxy component 100 mM, amine component 150 mM
[10] = L-amino acid ester 100 mM, amino acid or peptide amine component 150 mM
[11] = Table 16, oligopeptide production, carboxy component 100 mM, amine component 150 mM

## C[C@@H](N)C(=O)N[C@H](CCC(N)=O)C(=O)O [D-Ala-D-Gln] (H-[dA]-[dQ]-OH)
[1]; L or D amino acid methyl ester hydrochloride 100 mM, L or D amino acid 150 mM, pH 9.0, 25° C., 3 hours
  Produced peptide (mM): tr

## NC(=O)CC[C@H](NC(=O)[C@@H](N)Cc1ccc2ccccc2c1)C(=O)O [H-2-Nal-H-Gln-OH] (H-[2Nal]-Gln-OH)
[1]; carboxy component 40 mM, amine component 40 mM, 0.1 unit enzyme, 25° C., reaction time 3 hr
  Produced peptide (mM): tr

## NC(=O)CC[C@H](NC(=O)[C@@H](N)Cc1ccc(Cl)cc1)C(=O)O [H-Cl-F-Phe-H-Gln-OH]
[1]; carboxy component 25 mM, amine component 50 mM, 0.1 unit enzyme, 25° C., reaction time 3 hr
  Produced peptide (mM): tr

## CN[C@@H](C)C(=O)N[C@@H](Cc1ccccc1)C(=O)O [H-N-Me-Ala-Phe-OH]
[1]; [4]
  Produced peptide (mM): tr

## CC(C)(C)OC[C@H](N)C(=O)N[C@@H](CCC(N)=O)C(=O)O [H-Ser(tBu)-Gln-OH] (H-Ser(tBu)-Gln-OH)
[1]; carboxy component 100 mM, amine component 150 mM, 0.1 unit enzyme, 25° C., reaction time 2 hr
  Produced peptide (mM): tr

## NC(=O)CC[C@H](NC(=O)[C@@H](N)Cc1ccc(F)cc1)C(=O)O [H-p-F-Phe-H-Gln-OH]
[1]; [4]
  Produced peptide (mM): tr

## CC(C)(C)[C@H](N)C(=O)N[C@@H](CCC(N)=O)C(=O)O [H-t-Leu-H-Gln-OH] (H-[Tle]-Gln-OH)
[1]; [4]
  Produced peptide (mM): tr

## C[C@H](N)C(=O)N[C@@H](CS)C(=O)O [L-Ala-L-CySH] (H-Ala-Cys-OH)
[1]; 100 mM L-alanine methyl ester hydrochloride, L-amino acid 150 mM, pH 9.0, 25° C., 3 hours
  Produced peptide (mM): +
[2]; Table 15-1, carboxy component 100 mM, amine component 150 mM
  Produced peptide (mM): +

## NC(=O)CC[C@H](NC(=O)[C@@H](N)CC(N)=O)C(=O)O [L-Asn-L-Gln] (H-Asn-Gln-OH)
[1]; [5]
  Produced peptide (mM): +

## NC(=O)CC[C@H](NC(=O)[C@@H](N)CS)C(=O)O [L-CySH-L-Gln] (H-Cys-Gln-OH)
[1]; [5]
  Produced peptide (mM): +

## NC(=O)CC[C@H](NC(=O)[C@@H](N)Cc1cnc[nH]1)C(=O)O [L-His-L-Gln] (H-His-Gln-OH)
[1]; [5]
  Produced peptide (mM): +

## CC(C)C[C@H](N)C(=O)N[C@@H](CCC(N)=O)C(=O)O [L-Leu-L-Gln] (H-Leu-Gln-OH)
[1]; [5]
  Produced peptide (mM): +

## NCCCC[C@H](N)C(=O)N[C@@H](CCC(N)=O)C(=O)O [L-Lys-L-Gln] (H-Lys-Gln-OH)
[1]; [5]
  Produced peptide (mM): +

## NC(=O)CC[C@H](NC(=O)[C@@H](N)CO)C(=O)O [L-Ser-L-Gln] (H-Ser-Gln-OH)
[3]; [6]
  Produced peptide: 24.0 mM
[2]; [7]
  Produced peptide: 12.9 mM

## CSCC[C@H](NC(=O)[C@@H](N)CO)C(=O)O [L-Ser-L-Met] (H-Ser-Met-OH)
[3]; [8]
  Produced peptide: 12.5 mM
[2]; [9]
  Produced peptide: 7.6 mM

## N[C@@H](CO)C(=O)N[C@@H](Cc1ccccc1)C(=O)O [L-Ser-L-Phe]
[3]; [8]
  Produced peptide: 20.3 mM
[2]; [9]
  Produced peptide: 4.3 mM

## C[C@@H](O)[C@H](N)C(=O)NCC(=O)O [L-Thr-Gly] (H-Thr-Gly-OH)
[3]; [8]
  Produced peptide: 9.4 mM
[2]; [9]
  Produced peptide: 0.4 mM

## C[C@H](NC(=O)[C@@H](N)[C@@H](C)O)C(=O)O [L-Thr-L-Ala] (H-Thr-Ala-OH)
[3]; [8]
  Produced peptide: 9.4 mM
[2]; [9]
  Produced peptide: 5.8 mM

## C[C@@H](O)[C@H](N)C(=O)N[C@@H](CCC(N)=O)C(=O)O [L-Thr-L-Gln] (H-Thr-Gln-OH)
[3]; L-amino acid amide hydrochloride 100 mM as carboxy component, L-amino acid 150 mM
  Produced peptide: 0.3 mM
[3]; [6]
  Produced peptide: 81.9 mM
[2]; [7]
  Produced peptide: 36.1 mM

## CSCC[C@H](NC(=O)[C@@H](N)[C@@H](C)O)C(=O)O [L-Thr-L-Met] (H-Thr-Met-OH)
[3]; [8]
  Produced peptide: 38.6 mM
[2]; [9]
  Produced peptide: 28.9 mM

## CC(C)[C@H](NC(=O)[C@@H](N)[C@@H](C)O)C(=O)O [L-Thr-L-Val] (H-Thr-Val-OH)
[3]; [8]
  Produced peptide: 0.7 mM
[2]; [9]
  Produced peptide: 1.3 mM

## CNC(=O)[C@@H](N)[C@@H](C)O [L-Thr-methylamine]
[3]; amino acid methyl ester 100 mM, methylamine 150 mM
  Produced peptide: 0.2 mM
[2]; Table 15-4, amides or methylamine as components, 100 mM / 150 mM
  Produced peptide: 0.3 mM

## NC(=O)CCC(NC(=O)C(N)Cc1c[nH]c2ccccc12)C(=O)O [L-Trp-L-Gln] (H-Trp-Gln-OH; configuration not given here)
[1]; [5]
  Produced peptide (mM): +

## NC(=O)CC[C@H](NC(=O)[C@@H](N)Cc1ccc(O)cc1)C(=O)O [L-Tyr-L-Gln] (H-Tyr-Gln-OH)
[3]; [6]
  Produced peptide: 3.4 mM
[2]; [7]
  Produced peptide: 0.6 mM

## CC(C)[C@H](N)C(=O)N[C@@H](CCC(N)=O)C(=O)O [L-Val-L-Gln] (H-Val-Gln-OH)
[3]; [6]
  Produced peptide: 15.4 mM
[2]; [7]
  Produced peptide: 8.2 mM

## CC(C)[C@H](N)C(=O)N[C@@H](Cc1ccccc1)C(=O)O [L-Val-L-Phe] (H-Val-Phe-OH)
[3]; [8]
  Produced peptide: 6.1 mM
[2]; [9]
  Produced peptide: 1.0 mM

## CC(C)[C@H](N)C(=O)N[C@@H](CO)C(=O)O [L-Val-L-Ser] (H-Val-Ser-OH)
[3]; [8]
  Produced peptide: 30.8 mM
[2]; [9]
  Produced peptide: 31.9 mM

## NC(=O)CC[C@H](NC(=O)[C@@H](N)CCC(=O)O)C(=O)O [α-L-Glu-L-Gln] (H-Glu-Gln-OH)
[1]; [5]
  Produced peptide (mM): +

## C[C@H](NC(=O)CCN)C(=O)O [β-Ala-L-α-Ala]
[1]; β-amino acid ester as carboxy component or β-amino acid as amine component, 100 mM / 150 mM, pH 9.0, 25° C., 3 hours
  Produced peptide (mM): tr

## NC(=O)CC[C@H](NC(=O)C[C@H](N)C(=O)O)C(=O)O [β-L-Asp-L-Gln]
[1]; [5]
  Produced peptide (mM): tr

## NC(=O)CC[C@H](NC(=O)CC[C@H](N)C(=O)O)C(=O)O [γ-L-Glu-L-Gln]
[1]; [5]
  Produced peptide (mM): +

## Gly-L-Ala-L-Tyr
[3]; [10]
  Produced peptide: 1.7 mM
[2]; [11]
  Produced peptide: 0.6 mM

## L-Ala-Gly-Gly
[3]; [10]
  Produced peptide: 41.7 mM
[2]; [11]
  Produced peptide: 33.7 mM

## L-Ala-Gly-L-Ala
[3]; [10]
  Produced peptide: 25.9 mM
[2]; [11]
  Produced peptide: 35.1 mM

## L-Ala-L-Ala-L-Ala
[3]; [10]
  Produced peptide: 57.5 mM
[2]; [11]
  Produced peptide: 41.1 mM

## L-Ala-L-Ala-L-Ala-L-Ala
[3]; [10]
  Produced peptide: 44.5 mM
[2]; [11]
  Produced peptide: 30.1 mM

## L-Ala-L-His-L-Ala
[3]; [10]
  Produced peptide: 55.9 mM
[2]; [11]
  Produced peptide: 58.0 mM

## L-Ala-L-Leu-L-Ala
[3]; [10]
  Produced peptide: 48.3 mM
[2]; [11]
  Produced peptide: 40.7 mM

## L-Ala-L-Phe-Gly
[3]; [10]
  Produced peptide: 43.7 mM
[2]; [11]
  Produced peptide: 34.0 mM

## L-Ala-L-Phe-L-Ala
[3]; [10]
  Produced peptide: 49.7 mM
[2]; [11]
  Produced peptide: 24.8 mM

## L-Thr-Gly-Gly
[3]; [10]
  Produced peptide: 83.0 mM
[2]; [11]
  Produced peptide: 8.4 mM
